# PubChem BioAssay (NCI)
# Several values for one entry are separate records, joined by “and”; a condition that tells them apart may be missing. Equal entries are not always repeated.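 Cells were grown in 96-well plates and exposed to each compound for 48 hours at five concentrations; endpoints were interpolated linearly between bracketing concentrations, or set to the highest concentration if not reached. GI50 is the concentration that inhibits growth by half. TGI marks complete inhibition of growth.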
# How the values were obtained:
# Test in all cases: NCI tumour cell line growth inhibition, 48 h
# SK-OV-3 ovarian = test system: SK-OV-3 ovarian
# MOLT-4 leukemia = test system: MOLT-4 leukemia
# 786-0 renal = test system: 786-0 renal
# HL-60(TB) leukemia = test system: HL-60(TB) leukemia
# HCC-2998 colon = test system: HCC-2998 colon
# SR leukemia = test system: SR leukemia
# KM12 colon = test system: KM12 colon
# TK-10 renal = test system: TK-10 renal
# MCF7 breast = test system: MCF7 breast
# SW-620 colon = test system: SW-620 colon
Compound,TGI (SK-OV-3 ovarian),TGI (MOLT-4 leukemia),TGI (786-0 renal),TGI (HL-60(TB) leukemia),TGI (HCC-2998 colon),TGI (SR leukemia) [µM],TGI (KM12 colon),TGI (TK-10 renal),GI50 (SK-OV-3 ovarian) [µM],GI50 (786-0 renal) [µM],GI50 (HL-60(TB) leukemia),GI50 (HCC-2998 colon),GI50 (MCF7 breast),TGI (MCF7 breast),GI50 (TK-10 renal),GI50 (MOLT-4 leukemia) [µM],GI50 (KM12 colon),GI50 (SW-620 colon),TGI (SW-620 colon),GI50 (SR leukemia) [µM]
O=C1CCC2CCOc3ccc(O)c1c32 (stereo not given),> 100 µM,> 100 µM,> 100 µM,> 100 µM,> 100 µM,> 100,> 100 µM,> 100 µM,,,,,,,,,,,,
CN1c2ccccc2C(C)(C)C12CC(c1ccc(Cl)c(S(=O)(=O)N3CCCC3)c1)=NO2 (stereo not given),> 100 µM,,> 100 µM,> 100 µM,> 100 µM,,,> 100 µM,> 100,> 100,> 100 µM,> 100 µM,> 100 µM,> 100 µM,> 100 µM,,,,,
COc1cc2c3c(n(C)c(=O)c2cc1OC)-c1cc2c(cc1/C3=C\[C@@H](N)CCCCN)OCO2,> 100 µM,3.45 µM,> 100 µM,8.73 µM,45.9 µM,,> 100 µM,> 75 µM,> 26.2,2.06,2.15 µM,2.99 µM,0.657 µM,> 49.3 µM,7.12 µM,0.389,1.58 µM,1.57 µM,> 100 µM,
CN(C)CCCC(=O)Nc1ccc(Cn2nnc3c2C(=O)c2nnn(Cc4ccc(NC(=O)CCCN(C)C)cc4)c2C3=O)cc1,49 µM,5.2 µM,44.2 µM,5.17 µM,5.22 µM,61.4,22.7 µM,> 100 µM,20.9,18.2,1.75 µM,2.43 µM,1.45 µM,3.52 µM,> 100 µM,1.96,7.54 µM,3.43 µM,12.2 µM,3.36
N#Cc1nc(Nc2ccc([N+](=O)[O-])cc2)sc1N,97.5 µM,> 82 µM,> 100 µM,> 29.8 µM,33.1 µM,6.85,> 100 µM,> 77 µM,,,,,,,,,,,> 100 µM,
C=CCNc1cccc2c1C(=O)c1ccccc1C2(O)CC=C (stereo not given),,> 100 µM,36.9 µM,> 100 µM,37.4 µM,> 100,56.9 µM,57.8 µM,,19.8,47.2 µM,20.1 µM,66.7 µM,> 100 µM,25.2 µM,41.8,23.6 µM,22.2 µM,55.1 µM,36.8
CC1=C(c2cc(C(=O)Nc3cccc(C(F)(F)F)c3)nc(NC#N)n2)Sc2ccccc2N1,> 100 µM,> 100 µM,> 100 µM,> 100 µM,> 100 µM,> 100,> 100 µM,> 100 µM,,,,,,,,,,,> 100 µM,
O=C(/C=C/c1ccc(Cl)cc1)c1ccncc1,> 100 µM,60.3 µM,> 100 µM,67.3 µM,> 100 µM,> 100,86.6 µM,> 100 µM,,,,,,,,,,,> 100 µM,
COc1ccc(-c2[nH]ncc2-c2cc(OC)c(OC)c(OC)c2)cc1,20.5 µM,4.66 µM,13.9 µM,,19.2 µM,19.5,13.1 µM,,< 0.01,< 0.01,,0.0147 µM,< 0.01 µM,22.5 µM,,0.0308,< 0.01 µM,< 0.01 µM,> 41.5 µM,< 0.01
COc1ccc2c(c1)C(=O)c1c-2n(CCCCl)c(=O)c2cc(N(C)C)ccc12,> 100 µM,> 100 µM,> 100 µM,> 100 µM,> 100 µM,> 100,> 100 µM,> 100 µM,36.2,33.1,> 100 µM,> 100 µM,28.6 µM,> 100 µM,30.9 µM,> 100,3.56 µM,> 100 µM,> 100 µM,19.9
CC1(C)CC[C@]2(C(=O)O)CC[C@]3(C)[C@H](CC[C@@H]4[C@@]5(C)CCC(=O)C(C)(C)[C@@H]5CC[C@]43C)[C@H]2[C@H]1OC(=O)C(F)(F)F,54 µM,22.5 µM,29.5 µM,13.6 µM,22.8 µM,33.8,24.4 µM,31.8 µM,13.4,14.3,3.16 µM,10.7 µM,5.02 µM,25.4 µM,16.9 µM,4.22,10.4 µM,11.6 µM,28.1 µM,3.75
CN1CCN(c2cc(Nc3cc(C4CC4)[nH]n3)nc(Nc3ccc(CC(=O)NCc4cccc(F)c4)cc3)n2)CC1,12.9 µM,19.8 µM,4.04 µM,3.06 µM,12.1 µM,> 20.4,12.1 µM,16.1 µM,0.932,0.934,0.713 µM,1.15 µM,0.108 µM,2.05 µM,2.92 µM,0.248,0.0671 µM,0.12 µM,2.72 µM,0.293
OC(C(=Nc1ccccc1)c1ccccc1)c1ccccc1 (stereo not given),55.8 µM,55.1 µM,41.9 µM,56.1 µM,,10.7,10.4 µM,9.53 µM,,,,,,45.4 µM,,,,,66.5 µM,
Cc1nn(C)c(=O)c2nn(-c3ccccc3)c(C)c12,> 100 µM,> 100 µM,> 100 µM,> 100 µM,> 100 µM,> 100,> 100 µM,> 100 µM,,,,,,,,,,,> 100 µM,
C=CCNC(=S)OCCCCCCCCCC,43.3 µM,34.6 µM,32.6 µM,53.5 µM,31.8 µM,78.3,26.6 µM,24.1 µM,,,,,,,,,,,32.7 µM,
C=C1CO[C@@H]2C[C@@H]1CCC1(C)OC1CC/C(C)=C/CC[C@@]2(C)O (stereo not given in full),> 100 µM,39.1 µM,> 53.5 µM,,> 84 µM,2.72,42 µM,> 100 µM,> 100,> 20.3,,43.1 µM,24.7 µM,> 60.6 µM,> 100 µM,17.1,17.7 µM,15.8 µM,38.4 µM,1.29
O=[N+]([O-])c1ccc2c(c1)S(=O)c1ccccc1-2 (stereo not given),> 100 µM,> 100 µM,> 100 µM,> 100 µM,,> 100,> 100 µM,> 100 µM,,,,,,> 100 µM,,,,,> 100 µM,

Compound,TGI (SK-OV-3 ovarian),TGI (MOLT-4 leukemia),TGI (786-0 renal),TGI (HL-60(TB) leukemia),TGI (HCC-2998 colon),TGI (SR leukemia) [µM],TGI (KM12 colon),TGI (TK-10 renal),GI50 (SK-OV-3 ovarian) [µM],GI50 (786-0 renal) [µM],GI50 (HL-60(TB) leukemia),GI50 (HCC-2998 colon),GI50 (MCF7 breast),TGI (MCF7 breast),GI50 (TK-10 renal),GI50 (MOLT-4 leukemia) [µM],GI50 (KM12 colon),GI50 (SW-620 colon),TGI (SW-620 colon),GI50 (SR leukemia) [µM]
COc1cc(/C=C2\CCc3ccccc3C2=O)cc(OC)c1OC,35.5 µM,40.7 µM,29.3 µM,45.5 µM,32.2 µM,> 100,26.5 µM,33.6 µM,,,,,,,,,,,31 µM,
CC(C)CC(=O)CC(O)C(Cl)(Cl)Cl (stereo not given),> 100 µM,> 100 µM,> 100 µM,,> 100 µM,> 100,> 100 µM,> 100 µM,,,,,,> 100 µM,,,,,> 100 µM,
O=C(Nc1ccccc1F)c1ccc(NC2=C(Cl)C(=O)N(Cc3ccccc3)C2=O)cc1,31.4 µM,6.79 µM,27 µM,3.36 µM,29.1 µM,2.46,34.3 µM,,17.6,14,1.72 µM,15.7 µM,2.02 µM,5.06 µM,,2.45,14.8 µM,3.29 µM,9.93 µM,0.66
Cc1ccc(N(C(=O)CC(=O)N2N=C(c3ccccc3)C(N=Nc3ccc([N+](=O)[O-])cc3)C2=O)C(=O)c2ccc(Cl)cc2)cc1 (stereo not given),32.2 µM,> 100 µM,30.5 µM,> 56.5 µM,> 100 µM,23.1,> 78.9 µM,> 51.4 µM,,,,,,,,,,,> 59.6 µM,
CCCCC#Cc1cccc(=O)o1,> 100 µM,> 100 µM,> 100 µM,> 100 µM,,,> 100 µM,> 100 µM,> 100,> 100,1.86 µM,,8.9 µM,> 100 µM,> 100 µM,3.62,37.1 µM,22.5 µM,> 100 µM,
COc1ccc(S(=O)(=O)N/N=C(\C)CN2C(=O)c3ccccc3C2=O)cc1,> 100 µM,> 100 µM,> 100 µM,> 100 µM,> 100 µM,> 100,> 100 µM,> 100 µM,,,,,,,,,,,> 100 µM,
CCN1CCCCC(=N\O)/C(=N/O)CCCC1,> 100 µM,> 100 µM,> 100 µM,> 100 µM,,> 100,> 100 µM,> 100 µM,,,,,,> 100 µM,,,,,> 100 µM,
CS(=O)(=O)CS(=O)CS(=O)CS(=O)CC(NC(=O)CCC(N)C(=O)O)C(=O)O (stereo not given),,> 100 µM,> 100 µM,> 100 µM,> 100 µM,> 100,> 100 µM,> 100 µM,,,,,,> 100 µM,,,,,> 100 µM,
CC(C)(CCC(C)(C)c1ccccc1)c1ccccc1,82.6 µM,41.4 µM,29.5 µM,32.5 µM,,50,30.6 µM,46.4 µM,,,,,,32.8 µM,,,,,35.2 µM,
COc1ccc(-c2c(C#N)c(N)nc3c2CCCc2ccc(F)cc2-3)cc1OC,> 92.3 µM,> 100 µM,30.3 µM,> 100 µM,14.4 µM,,2.58 µM,1.7 µM,4.27,0.0964,< 0.01 µM,0.354 µM,< 0.01 µM,> 100 µM,< 0.0163 µM,< 0.01,< 0.01 µM,,> 38.8 µM,
Cc1ccc(-n2c(-c3ccc(Cl)cc3)cs/c2=N\NC(=O)COc2n[nH]c(=O)c3ccccc23)cc1,> 100 µM,> 100 µM,> 100 µM,> 100 µM,,> 100,> 100 µM,> 100 µM,57.9,51.4,> 100 µM,,70.7 µM,> 100 µM,52.7 µM,> 100,> 100 µM,> 100 µM,> 100 µM,> 100
CC(C)(C)C(=O)OCC(COC(=O)C(C)(C)C)[N+](=O)[O-],> 100 µM,> 100 µM,> 100 µM,79.8 µM,> 100 µM,> 100,> 100 µM,> 100 µM,,,,,,,,,,,> 100 µM,
O=[N+]([O-])c1ccc(O)c2ncccc12,> 100 µM and 15.7 µM,> 100 µM and 10.4 µM,> 100 µM and 11.6 µM,,18.5 µM,9.29,> 100 µM and 16.5 µM,> 100 µM and 30.3 µM,,,,5.21 µM,23.1 µM and 3.39 µM,> 100 µM and 11.5 µM,,,3.92 µM and 4.31 µM,,> 100 µM and 18.6 µM,3.01
O=C1c2ccccc2C2(O)Oc3cccc(O)c3C12O (stereo not given),> 100 µM,> 100 µM,> 100 µM,> 100 µM,> 100 µM,> 100,> 100 µM,> 100 µM,,,,,,,,,,,> 100 µM,
N#Cc1ccc2oc3ccc(C#N)cc3c(=O)c2c1,,46.9 µM,68 µM,38.5 µM,> 100 µM,> 100,> 100 µM,73.4 µM,,,,,,94.8 µM,,,,,> 100 µM,
COc1ccc(/C=C/C(C(=O)O)C(=O)O)cc1,> 100 µM,84.8 µM,> 100 µM,74.7 µM,> 100 µM,> 100,> 100 µM,> 100 µM,,,,,,,,,,,> 100 µM,
COc1ccc(Cn2cc(Cn3c(=O)c(-c4nc5ccccc5[nH]4)cc4ccccc43)nn2)c(OC)c1OC,,> 100 µM,2.86 µM,50 µM and > 100 µM,1.2 µM and 2.07 µM,> 100,1.39 µM and 1.48 µM,,,0.457,0.114 µM and 0.306 µM,0.174 µM and 0.291 µM,0.0789 µM and 0.0495 µM,,0.572 µM and 1.02 µM,0.468,0.226 µM and 0.186 µM,0.223 µM and 0.293 µM,50 µM and > 100 µM,0.291
